Data published in ChEMBL document CHEMBL1140483, “High dopamine transporter selectivity can be displayed by remarkably simple non-nitrogen containing inhibitors” (Bioorg Med Chem Lett, 2007).

Key:
[1] = target: Sodium-dependent dopamine transporter (Homo sapiens, UniProt Q01959); experiment: Displacement of [125I]RTI55 from human DAT transfected in COS1 cells; assay type: cell-based, COS-1
Homo sapiens [2] = organism: Homo sapiens; experiment: Selectivity for human DAT over human NET
[3] = target: Sodium-dependent serotonin transporter (Homo sapiens, UniProt P31645); experiment: Displacement of [125I]RTI55 from human SERT transfected in COS1 cells; assay type: cell-based, COS-1
[4] = target: Sodium-dependent noradrenaline transporter (Homo sapiens, UniProt P23975); experiment: Displacement of [125I]RTI55 from human NET transfected in COS1 cells; assay type: cell-based, COS-1
Homo sapiens [5] = organism: Homo sapiens; experiment: Selectivity for human DAT over human SERT

Sodium-dependent dopamine transporter, sequence (Q01959 whole entry): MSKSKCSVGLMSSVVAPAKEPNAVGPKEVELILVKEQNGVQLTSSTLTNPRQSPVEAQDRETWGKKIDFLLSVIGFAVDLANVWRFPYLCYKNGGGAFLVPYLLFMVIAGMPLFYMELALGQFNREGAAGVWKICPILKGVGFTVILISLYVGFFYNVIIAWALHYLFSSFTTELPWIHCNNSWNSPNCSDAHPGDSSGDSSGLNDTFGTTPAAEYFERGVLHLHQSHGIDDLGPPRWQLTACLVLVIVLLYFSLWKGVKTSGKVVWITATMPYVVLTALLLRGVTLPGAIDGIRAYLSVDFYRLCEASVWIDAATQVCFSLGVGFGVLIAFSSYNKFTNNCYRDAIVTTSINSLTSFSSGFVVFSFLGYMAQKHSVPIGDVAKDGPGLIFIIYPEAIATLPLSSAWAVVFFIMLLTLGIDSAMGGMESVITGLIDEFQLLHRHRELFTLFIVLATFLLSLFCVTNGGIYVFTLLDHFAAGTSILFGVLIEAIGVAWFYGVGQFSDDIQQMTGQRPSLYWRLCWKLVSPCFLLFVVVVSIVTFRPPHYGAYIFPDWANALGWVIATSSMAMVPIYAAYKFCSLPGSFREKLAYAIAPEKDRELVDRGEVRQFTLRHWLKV
Sodium-dependent noradrenaline transporter, sequence (P23975 whole entry): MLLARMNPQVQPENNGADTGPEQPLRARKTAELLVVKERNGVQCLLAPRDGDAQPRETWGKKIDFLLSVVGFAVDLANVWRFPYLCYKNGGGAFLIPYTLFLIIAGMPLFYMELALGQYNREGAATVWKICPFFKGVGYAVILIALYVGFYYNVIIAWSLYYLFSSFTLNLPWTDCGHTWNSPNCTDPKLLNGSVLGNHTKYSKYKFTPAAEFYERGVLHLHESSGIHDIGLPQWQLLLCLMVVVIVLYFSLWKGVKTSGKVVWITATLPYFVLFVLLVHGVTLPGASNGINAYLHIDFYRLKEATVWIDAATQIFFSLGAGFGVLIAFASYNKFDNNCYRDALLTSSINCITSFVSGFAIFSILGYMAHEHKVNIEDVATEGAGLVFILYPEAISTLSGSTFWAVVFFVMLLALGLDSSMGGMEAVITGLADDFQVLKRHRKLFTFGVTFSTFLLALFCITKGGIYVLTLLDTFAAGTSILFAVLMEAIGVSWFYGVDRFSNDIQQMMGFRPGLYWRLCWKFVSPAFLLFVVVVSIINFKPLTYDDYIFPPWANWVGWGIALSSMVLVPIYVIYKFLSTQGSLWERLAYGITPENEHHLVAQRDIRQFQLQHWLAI
Sodium-dependent serotonin transporter, sequence (P31645 whole entry): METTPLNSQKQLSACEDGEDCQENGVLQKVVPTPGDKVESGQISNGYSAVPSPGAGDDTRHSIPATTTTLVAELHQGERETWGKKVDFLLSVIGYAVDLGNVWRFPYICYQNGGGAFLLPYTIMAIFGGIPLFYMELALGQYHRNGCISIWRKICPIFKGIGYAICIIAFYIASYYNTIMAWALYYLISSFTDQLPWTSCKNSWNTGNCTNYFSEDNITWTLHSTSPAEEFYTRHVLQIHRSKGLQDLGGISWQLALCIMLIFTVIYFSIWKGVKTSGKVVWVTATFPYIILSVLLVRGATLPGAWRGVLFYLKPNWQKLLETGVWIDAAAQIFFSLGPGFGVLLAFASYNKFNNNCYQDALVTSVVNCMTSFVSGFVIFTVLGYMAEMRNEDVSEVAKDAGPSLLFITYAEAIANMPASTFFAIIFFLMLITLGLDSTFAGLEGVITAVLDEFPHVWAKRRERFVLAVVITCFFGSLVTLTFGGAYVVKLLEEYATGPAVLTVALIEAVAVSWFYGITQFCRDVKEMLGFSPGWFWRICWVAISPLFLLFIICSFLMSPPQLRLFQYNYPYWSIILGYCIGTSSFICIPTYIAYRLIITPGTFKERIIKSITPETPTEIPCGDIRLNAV

| Ki [1] | Ratio Ki (Homo sapiens [2]) | Ki [3] | Ki [4] | Ratio Ki (Homo sapiens [5]) | SMILES |
| --- | --- | --- | --- | --- | --- |
| 11 µM | 27 | > 500 µM | 300 µM | > 45 | O=C(C1=C(c2ccc(Cl)c(Cl)c2)CCC1)N1CCOCC1 |
| 0.14 µM | 130 | 110 µM | 18 µM | 790 | O=C(NCc1cccs1)C1=C(c2ccc(Cl)c(Cl)c2)CCC1 |
| 0.3 µM | 30 | 50 µM | 9 µM | 170 | O=C(OCCO)C1=C(c2ccc(Cl)c(Cl)c2)CCC1 |
| 12 µM | 11 | > 1000 µM | 130 µM | > 83 | O=C(OC1CCCCC1)C1=C(c2ccc(Cl)c(Cl)c2)CCC1 |
| 0.22 µM | 150 | > 500 µM | 33 µM | > 2300 | Cc1ccccc1OC(=O)C1=C(c2ccc(Cl)c(Cl)c2)CCC1 |
| 94 µM | 2.2 | 300 µM | 210 µM | 3.2 | CCN(CC)C(=O)C1=C(c2ccc(Cl)c(Cl)c2)CCC1 |
| 0.03 µM | 400 | 24 µM | 12 µM | 800 | O=C(NCc1ccco1)C1=C(c2ccc(Cl)c(Cl)c2)CCC1 |
| 0.83 µM | 11 | > 500 µM | 9.2 µM | > 600 | CONC(=O)C1=C(c2ccc(Cl)c(Cl)c2)CCC1 |
| 3.4 µM | 50 | > 1000 µM | 170 µM | – | O=C(OCC(F)(F)F)C1=C(c2ccc(Cl)c(Cl)c2)CCC1 |
| 58 µM | 7 | 520 µM | 410 µM | 9 | O=C(C1=C(c2ccc(Cl)c(Cl)c2)CCC1)N1CCCC1 |
| 0.06 µM | > 1700 | > 1000 µM | > 100 µM | > 17000 | Cc1cccc(OC(=O)C2=C(c3ccc(Cl)c(Cl)c3)CCC2)c1 |
| 0.07 µM | 110 | > 500 µM | 8 µM | > 7100 | O=C(NCCF)C1=C(c2ccc(Cl)c(Cl)c2)CCC1 |
| 9 µM | 5.6 | > 1000 µM | 50 µM | > 110 | O=C(NC1CCC1)C1=C(c2ccc(Cl)c(Cl)c2)CCC1 |

| SMILES | Ki [1] | Ratio Ki (Homo sapiens [2]) | Ki [3] | Ki [4] | Ratio Ki (Homo sapiens [5]) |
| --- | --- | --- | --- | --- | --- |
| O=C(Oc1ccccc1)C1=C(c2ccc(Cl)c(Cl)c2)CCC1 | 0.17 µM | 500 | > 500 µM | 85 µM | > 2900 |
| CC(C)OC(=O)C1=C(c2ccc(Cl)c(Cl)c2)CCC1 | 2.6 µM | 10 | 500 µM | 26 µM | 190 |
| O=C(OCCF)C1=C(c2ccc(Cl)c(Cl)c2)CCC1 | 0.5 µM | 12 | 390 µM | 5.8 µM | 780 |
| O=C(OCc1cccs1)C1=C(c2ccc(Cl)c(Cl)c2)CCC1 | 0.4 µM | 110 | 910 µM | 42 µM | 2300 |
| O=C(OCc1ccco1)C1=C(c2ccc(Cl)c(Cl)c2)CCC1 | 1.5 µM | 41 | 24 µM | 61 µM | 16 |
| CON(C)C(=O)C1=C(c2ccc(Cl)c(Cl)c2)CCC1 | 6.4 µM | 39 | 540 µM | 250 µM | 84 |
| COC(=O)C1=C(c2ccc(Cl)c(Cl)c2)CCC1 | – | 6 | – | – | 410 |
